Source: US10941114B2, “Small molecule lipid II inhibitors” (University Of Maryland, Baltimore, priority 2015, dated 2021)

What was measured:
[1] = test system: Staphylococcus aureus; experiment: Antibacterial activity assay (MIC, broth dilution); format: cell-based; parameters: S. aureus Killing / Bacterial Killing S. aureus: unit not given here; details: for MIC SA: S. aureus USA300 (MRSA), average of two replicates; for Bacterial Killing S. aureus: determined as in Example 1E (MIC); for MIC: Staphylococcus aureus, Table 16, CLSI M07-A10 dilution method, read-out: MIC S. aureus
[2] = test system: Enterococcus faecium; experiment: Antibacterial activity assay (MIC, broth dilution); format: cell-based; parameters: Bacterial Killing E. faecium: unit: ug/mL; details: for MIC EF: average of two replicates; for Bacterial Killing E. faecium: determined as in Example 1E (MIC); for MIC: Enterococcus faecium, Table 16, CLSI M07-A10 dilution method, read-out: MIC E. faecium
Experimental: (§1) Determination of the Minimal Inhibitory Concentrations (MIC) by dilution was carried out by broth dilution according to CLSI standards. See CLSI, Methods for Dilution Antimicrobial Susceptibility Tests for Bacteria That Grow Aerobically; Approved Standard—Eighth Edition. 2009, the contents of which are hereby incorporated by reference. Briefly, the minimum inhibitory concentration MIC, is the lowest concentration of a compound that prevents visible growth of a bacterium, in other words at which it has bacteriostatic activity.
For these tests, cation-adjusted Mueller Hinton broth, containing 10% brain-heart infusion (BHI) was used. Concentrations (MIC) are given in μg/mL. The compound was […].
(§2) Compounds were tested for MIC by methods known in the art and described in CLSI, Methods for Dilution Antimicrobial Susceptibility Tests for Bacteria That Grow Aerobically; Approved Standard—Tenth Edition. CLSI document M07-A10. Wayne, Pa.: Clinical and Laboratory Standards Institute, 2015, which is hereby incorporated by reference for these methods.
(§3) Selected compounds also were tested by broth microdilution methods known in the art and described in CLSI, Methods for Dilution Antimicrobial Susceptibility Tests for Bacteria That Grow Aerobically; Approved Standard—Tenth Edition. CLSI document M07-A10. Wayne, Pa.: Clinical and Laboratory Standards Institute, 2015, which is hereby incorporated by reference. Structures of selected compounds in the tables are listed below.

[3] = test system: Acinetobacter baumannii; experiment: Antibacterial activity assay (MIC, broth dilution); format: cell-based; details: for MIC AB: A. baumannii 2-2-2 (colistin-resistant clinical isolate), average of two replicates; for MIC: Acinetobacter baumannii, Table 16, CLSI M07-A10 dilution method, read-out: MIC A. baumannii
Experimental: as §1, §2, §3

[4] = test system: HeLa cells; experiment: Cytotoxicity testing (CC50, MTS assay); details: HeLa cells
[5] = test system: Escherichia coli; experiment: Antibacterial activity assay (MIC, broth dilution); format: cell-based; details: determined as in Example 1E (MIC)

Compound | MIC [3] [µg/mL] | MIC [1] [µg/mL] | MIC [2] [µg/mL] | further results
CC(C)[n+]1c(/C=C/c2ccc(N(C)C)cc2)cc(-c2ccc(Br)cc2)cc1-c1ccc(Br)cc1.[I-] [EL-3] |  |  |  | MIC SA [1]: 2 µg/mL; MIC EF ([2]; E. faecium EF1509 (VRE)): 2 µg/mL; MIC AB [3]: 16 µg/mL; CC50 ([4]; exposure 24 hour): 9 µg/mL
CN(C)c1ccc(/C=C/c2cc(-c3ccc(Br)cc3)cc(-c3ccc(Br)cc3)[n+]2C)cc1.[I-] [EL-2] |  |  |  | MIC SA [1]: 1 µg/mL; MIC EF ([2]; E. faecium EF1509 (VRE)): 1 µg/mL; MIC EF ([2]; text: E. faecium EF1509 (VRE), footnote: Enterococcus faecalis ATCC 1509): 1 µg/mL; MIC AB [3]: 8 µg/mL; CC50 ([4]; exposure 24 hour): 5 µg/mL; CC50 ([4]; exposure 24 hours): 5 µg/mL
CN1/C(=C/C=C/c2cc(-c3ccc(Br)cc3)cc(-c3ccc(Br)cc3)[o+]2)C(C)(C)c2ccccc21 [Compound 7jc42-2] |  |  |  | Bacterial Killing S. aureus [1]: 32; Bacterial Killing E. faecium [2]: 32; Bacterial Killing E. coli [5]: >64
Cc1ccc(-c2cc(-c3ccc(Br)cc3)cc(/C=C/c3ccc(N(C)CCO)cc3)[n+]2C)c(C)c1.[I-] [Compound 9t, (E)-4-(4-bromophenyl)-2-(2,4-dimethylphenyl)-6-(4-((2-hydroxyethyl)(methyl)-amino)styryl)-1-methylpyridin-1-ium iodide] | 16 | 0.5 | 2 | 
Cc1ccc(/C=C/c2cc(-c3ccc(Br)cc3)cc(-c3ccc(Br)cc3)[n+]2C)cc1.[I-] [Compound 9d, (E)-2,4-bis(4-bromophenyl)-1-methyl-6-(4-methylstyryl)pyridin-1-ium iodide] | > 64 | 1 | 4 | 
CN(C)c1ccc(/C=C/c2cc(-c3cccc(F)c3)cc(-c3cccc(F)c3)[o+]2)cc1 [Compound 7jc46-1] |  |  |  | Bacterial Killing S. aureus [1]: 1; Bacterial Killing E. faecium [2]: 2; Bacterial Killing E. coli [5]: >64
CCN(CC)c1ccc(/C=C/c2cc(-c3ccc(Br)cc3)cc(-c3ccc(Br)cc3)[n+]2C)cc1F.[I-] [Compound 9j, (E)-2,4-bis(4-bromophenyl)-6-(4-(diethylamino)-3-fluorostyryl)-1-methyl-pyridin-1-ium iodide] | 64 | 32 | 32 | 
CN(C)c1ccc(/C=C/c2cc(-c3ccc(Br)cc3)cc(-c3cccc(Br)c3)[n+]2C)cc1.[I-] [Compound 9l, (E)-2-(3-bromophenyl)-4-(4-bromophenyl)-6-(4-(dimethylamino)styryl)-1-methylpyridin-1-ium iodide] | 16 | 8 | 4 | 
CN(CCO)c1ccc(/C=C/c2cc(-c3ccc(Br)cc3)cc(-c3ccc(Br)cc3)[n+]2C)cc1.[I-] [Compound 9g, (E)-2,4-bis(4-bromophenyl)-6-(4-((2-hydroxyethyl)(methyl)amino)styryl)-1-methylpyridin-1-ium iodide] | 32 | 16 | 8 | 
CN(C)c1ccc(/C=C/c2cc(-c3ccc(Br)cc3)cc(-c3ccc(Br)cc3)[n+]2C)cc1.[I-] [Compound 9, (E)-2,4-bis(4-bromophenyl)-6-(4-(dimethylamino)styryl)-1-methylpyridin-1-ium iodide] | 8 | 1 | 8 | 
CN1/C(=C/C=C/c2cc(-c3ccc(Cl)cc3)cc(-c3ccc(Cl)cc3)[o+]2)C(C)(C)c2ccccc21 [Compound 7jc42-1] |  |  |  | Bacterial Killing S. aureus [1]: 8; Bacterial Killing E. faecium [2]: 32; Bacterial Killing E. coli [5]: >64
CCN(CC)c1ccc(/C=C/c2cc(-c3ccc(Br)cc3)cc(-c3ccc(C)cc3C)[n+]2C)cc1.[I-] [Compound 9r, (E)-4-(4-bromophenyl)-2-(4-(diethylamino)styryl)-6-(2,4-dimethylphenyl)-1-methylpyridin-1-ium iodide] | 8 | 0.5 | 1 | 
CCN(CC)c1ccc(/C=C/c2cc(-c3ccc(Br)cc3)cc(-c3ccc(Br)cc3)[n+]2C)cc1.[I-] [Compound 9f, (E)-2,4-bis(4-bromophenyl)-6-(4-(diethylamino)styryl)-1-methylpyridin-1-ium iodide] | 32 | 1 | 2 | 
CN(C)c1ccc(/C=C/C=C/c2cc(-c3ccc(F)cc3)cc(-c3ccc(F)cc3)[o+]2)cc1 [Compound 7jc47-2] |  |  |  | Bacterial Killing S. aureus [1]: 1; Bacterial Killing E. faecium [2]: 1; Bacterial Killing E. coli [5]: >64
Cc1ccc(-c2cc(-c3ccc(Br)cc3)cc(/C=C/c3ccc(N(C)C)cc3)[n+]2C)cc1C.[I-] [Compound 9w, (E)-4-(4-bromophenyl)-2-(4-(dimethylamino)styryl)-6-(3,4-dimethylphenyl)-1-methylpyridin-1-ium iodide] | 8 | 1 | 4 | 
Cc1ccc(-c2cc(/C=C/c3ccc(N(C)C)cc3)[n+](C)c(-c3ccc(Br)cc3)c2)cc1 [Compound 9a] | 4 | 0.5 | 4 | 

The next lines start with results.

MIC [3] [µg/mL] | Compound | MIC [1] [µg/mL] | MIC [2] [µg/mL] | further results
8 | COc1cc(-c2cc(/C=C/c3ccc(N(C)CCO)cc3)[n+](C)c(-c3ccc(Br)cc3)c2)cc(OC)c1Br.[I-] [Compound 9y3, (E)-4-(4-bromo-3,5-dimethoxyphenyl)-2-(4-bromophenyl)-6-(4-((2-hydroxy-ethyl)(methyl)amino)styryl)-1-methylpyridin-1-ium iodide] | 4 | 8 | 
16 | Cc1ccc(-c2cc(-c3ccc(Br)cc3)cc(/C=C/c3ccc(N(C)CCO)cc3)[n+]2C)cc1C.[I-] [Compound 9x, (E)-4-(4-bromophenyl)-2-(3,4-dimethylphenyl)-6-(4-((2-hydroxyethyl)(methyl)-amino)styryl)-1-methylpyridin-1-ium iodide] | 1 | 8 | 
32 | CN(CCC#N)c1ccc(/C=C/c2cc(-c3ccc(Br)cc3Cl)cc(-c3ccc(Br)cc3)[n+]2C)cc1.[I-] [Compound 9z4, (E)-4-(4-bromo-2-chlorophenyl)-2-(4-bromophenyl)-6-(4-((2-cyanoethyl)-(methyl)amino)styryl)-1-methylpyridin-1-ium iodide] | 2 | 4 | 
16 | COc1cc(-c2cc(/C=C/c3ccc(N(C)C)cc3)[n+](C)c(-c3ccc(Br)cc3)c2)cc(OC)c1Br.[I-] [Compound 9y1, (E)-4-(4-bromo-3,5-dimethoxyphenyl)-2-(4-bromophenyl)-6-(4-(dimethyl-amino)styryl)-1-methylpyridin-1-ium iodide] | 2 | 8 | 
8 | CCN(CC)c1ccc(/C=C/c2cc(-c3cc(OC)c(Br)c(OC)c3)cc(-c3ccc(Br)cc3)[n+]2C)cc1.[I-] [Compound 9y2, (E)-4-(4-bromo-3,5-dimethoxyphenyl)-2-(4-bromophenyl)-6-(4-(diethylamino)-styryl)-1-methylpyridin-1-ium iodide] | 1 | 4 | 
